Measurements reported in patent US20190307740A1, “COMPOSITIONS AND METHODS FOR TREATMENT RELATED TO FALL AND FALL FREQUENCY IN NEURODEGENERATIVE DISEASES” (Neurocea, LLC, priority 2016, published 2019).
Several values for one entry are separate records, joined by “and”; a condition that tells them apart may be missing. Identical values can stand only once.

What was measured:
[1] = test system: subjects with idiopathic PD with LIDs
Description: (§1) This post hoc analysis was inclusive of patients having baseline scores of […] for each of UPDRS Part II Question 13, Part II Question 14, and Part III Item 30.
(§2) The original UPDRS scale was used. […] In the UPDRS Part II, Question 13 is on Falling unrelated to Freezing. […] In Part II, Question 14 is on Freezing when Walking. This is a 5-point item and has two variables freezing and falls. […] Questions 13 and 14 were compared separately (Table 11).
(§3) For falls (UPDRS Part II, Question 13), a 5-point scale was used: 0: No falls to 4: falls more than once per day. For FOG and falls related to FOG (Question 14), a 5-point scale was used: 0: No FOG to 3 or 4: frequent falls from FOG. […] Analysis utilized Fisher's exact 2-tailed test. Improvement or worsening over baseline was calculated from the last treatment visit (Table 11).
Question 14—Freezing of Walking • 0=None; • 1=Rare freezing when walking, may have start hesitation; • 2=Occasional freezing when walking; • 3=Frequent freezing, occasionally falls from freezing; • 4=Frequent falls from freezing.
(§4) For the purposes of this alternative post hoc analysis, only patients having a screening or baseline score of 2 or more, i.e., occasional freezing when walking or occasional falls, less than once per day, were considered to have experienced episodes of freezing and/or falling. Additionally, scores of patients with a screening or baseline score of 1 were set to 0, i.e., no freezing when walking or no falls. All patients were included in the analysis regardless of their status during the study, with the last observation carried forward.

[2] = test system: subjects with idiopathic PD with LIDs; remark: listed apart in the source
Description: (§5) At the time the study was performed (2009), there was no FDA accepted instrument for measuring treatment efficacy for LIDs. Therefore, several secondary objectives were utilized to assess efficacy including the Unified Dyskinesia Rating Scale (UDysRS).

[3] = test system: subjects with idiopathic PD with LIDs; remark: listed apart in the source
Description: as §5
A total of 65 male and female subjects with idiopathic PD with LIDs were randomized in the study. The study consisted of 4 phases (FIG. 6A): screening phase (up to 3 weeks), double-blind treatment phase (10 weeks), taper phase (2 weeks), and follow-up phase (2 weeks). The approximate duration of the study for each subject was 17 weeks. […] During the double-blind treatment phase, dosing was begun at Visit 0 at 1 mg every 6 hours (total daily dose [TDD]=4 mg/day) and escalated upwards at 2-week intervals as follows: 2 mg every 6 hours (TDD=8 mg/day) at Visit 1 (Week 2); 4 mg every 6 hours (TDD=16 mg/day) at Visit 2 (Week 4); 6 mg every 6 hours (TDD=24 mg/day) at Visit 3 (Week 6). Subjects were maintained on 24 mg/day for 4 weeks. The subsequent taper phase (2 weeks total), beginning at Visit 4 (Week 10), consisted of 9 days of drug taper and 5 days off drug prior to Visit 5 (final safety visit). […] Ondansetron was provided by the sponsor and dispensed with each dose escalation step with instructions to use it for nausea and vomiting only during the first 4 days following dose initiation or escalation. […] No other dose down-titration was allowed.
Efficacy was measured with the Unified Dyskinesia Rating Scale (UDysRS), a semi-quantitative assessment, FDA-validated instrument to assess […] dyskinesia in PD. […] Dosing was begun at 1 mg every 6 hours to a final dose of 24 mg per day. Patients who tolerated a total daily dose of at least 16 mg per day continued in the study.
Subjects were maintained on 24 mg/day for 4 weeks. The subsequent taper phase (2 weeks total), beginning at visit 4 (Week 10), consisted of 9 days of drug taper and 5 days off drug prior to Visit 5 (final safety visit). […] No other down-titration was allowed.
LIDs were assessed by the UDysRS, the main measure of LIDs (Table 12). […] The study was conducted in accordance with the Declaration of Helsinki and Good Clinical Practice Guidelines. All sites received approval from an institutional review board and written informed consent was obtained from each patient prior to participation.

[4] = oral capsules
[5] = test system: subjects with idiopathic PD with LIDs; remark: listed apart in the source
Description: as §1, §2, §3
(§6) This post hoc analysis was inclusive of patients having screening and/or baseline scores of greater than 0 for each of UPDRS Part II Question 13, Part II Question 14, and Part III Item 30.
Question 13—Falling Unrelated to Freezing • 0=None; • 1=Rare falling; • 2=Occasionally falls, less than once per day; • 3=Falls an average of once daily; • 4=Falls more than once daily.
as §4

[6] = test system: subjects with idiopathic PD with LIDs; remark: listed apart in the source
Description: as §1, §2, §6

[7] = baseline to week 10, of 30 patients
[8] = baseline to week 10, of 30 patients, negative = improvement
[9] = of 30 patients, p=0.004 vs placebo

Question: Which “improvement in freezing vs placebo at week 10” value ([1]; Question 14 score of 2 or greater at screening or baseline, Cochran-Mantel-Haenszel p=0.0476) does the source give for `CN1CCCC1c1cccnc1.O=C(O)C(O)C(O)C(=O)O` (stereo not shown) [NP002, Nicotine Bitartrate] here?
Answer: Its value is “statistically significant improvement in freezing”.

Question: And the “patients with either a reduction or absence of FOG” value ([1]; active phase of the study)?
Answer: The value was about 73%.

Question: What about the “FOG (Question 14): patients with No Change” value [1, 7] of the same molecule?
Answer: The value was 17.

Question: And the “FOG (Question 14): patients with change +1” value [1, 7]?
Answer: Its value is 1.

Question: And the “FOG (Question 14): patients with change +2” value [1, 7]?
Answer: Its value is 0.

Question: What about the “FOG (Question 14): patients with change +3” value [1, 7] of the same molecule?
Answer: The value was 0.

Question: And the “FOG (Question 14): patients with change −1” value [1, 7]?
Answer: Its value is 10.

Question: What about the “FOG (Question 14): patients with change −2” value [1, 7] of the same molecule?
Answer: Its value is 2.

Question: What about the “FOG (Question 14): patients with change −3” value [1, 8] of the same molecule?
Answer: The value was 0.

Question: What about the “patients with no FOG during the study” value ([1]; number of 30 patients) of the same molecule?
Answer: Its value is 10.

Question: And the “patients with a reduction in FOG” value [1, 9]?
Answer: Its value is 40%.

Question: And the “PGI-C responders (score of 1, 2, or 3)” value ([2]; Visit 4 (Week 10), p=0.0048 vs placebo)?
Answer: Its value is 21 (77.8%).

Question: And the “LF-ADL responders (>25% reduction from baseline), vs placebo” value ([2]; Visit 4 (Week 10), p=0.0453)?
Answer: The value was “statistically significant difference between treatment groups”.

Question: And the “patient- and physician-rated assessments of efficacy vs placebo” value ([2]; in vivo)?
Answer: Its value is “superior to placebo on ALL patient- and physician-rated assessments of efficacy”.

Question: What about the “Study discontinuation, primary reason adverse event, n (%)” value ([3]; 35 randomized) of the same molecule?
Answer: Its value is 6 n (%) and 6 (17.1) n (%).

Question: What about the Constipation ([3]; N = 35) of the same molecule?
Answer: Its Constipation is 5 (14.3) n (%).

Question: What about the Diarrhea ([3]; N = 35) of the same molecule?
Answer: Its Diarrhea is 2 (5.7) n (%).

Question: And the Dizziness ([3]; N = 35)?
Answer: The Dizziness was 7 (20.0) n (%).

Question: What about the Fatigue ([3]; N = 35) of the same molecule?
Answer: The Fatigue was 3 (8.6) n (%).

Question: What about the Headache ([3]; N = 35) of the same molecule?
Answer: The Headache was 2 (5.7) n (%).

Question: And the Insomnia ([3]; N = 35)?
Answer: Its Insomnia is 0 (0.0) n (%).

Question: And the Nausea ([3]; N = 35)?
Answer: Its Nausea is 13 (37.1) n (%).

Question: What about the Nightmare ([3]; N = 35) of the same molecule?
Answer: Its Nightmare is 2 (5.7) n (%).

Question: What about the “Number (%) of subject with any AE” value ([3]; N = 35) of the same molecule?
Answer: The value was 26 (74.3) n (%).

Question: What about the Pain ([3]; N = 35) of the same molecule?
Answer: The Pain was 3 (8.6) n (%).

Question: What about the Pain in extremity ([3]; N = 35) of the same molecule?
Answer: Its Pain in extremity is 2 (5.7) n (%).

Question: What about the Tremor ([3]; N = 35) of the same molecule?
Answer: The Tremor was 2 (5.7) n (%).

Question: And the Vomiting ([3]; N = 35)?
Answer: The Vomiting was 4 (11.4) n (%).

Question: What about the “Subjects who required dose reduction or discontinuation of study treatment, n (%)” value ([3]; because of adverse events, 35 randomized) of the same molecule?
Answer: Its value is 7 (20.0) n (%).

Question: And the serum cotinine levels ([3]; compliance check)?
Answer: Its serum cotinine levels is “paralleled dosing of nicotine”.

Question: What about the “most frequent adverse event” value ([3]; in vivo) of the same molecule?
Answer: The value was “nausea”.

Question: What about the “number of adverse events reported” value ([3]; in vivo) of the same molecule?
Answer: Its value is 45.

Question: And the “overall safety and tolerability” value ([3]; oral 4 times/day up to 24 mg/day, 10 weeks)?
Answer: Its value is “safe and well tolerated, other than nausea”.

Question: And the “time until plasma concentration of nicotine returns close to baseline” value [4]?
Answer: The value was “approximately 6 hours”.

Question: And the “falling vs placebo at week 10” value ([5]; Question 13 score of 2 or greater at screening or baseline, Wilcoxon-Mann-Whitney p=0.3250)?
Answer: Its value is “directional signal towards reduced falling”.

Question: What about the “patients with either a reduction or absence of falls” value ([5]; active phase of the study) of the same molecule?
Answer: The value was about 87%.

Question: And the “Falls (Question 13): patients with No Change” value [5, 7]?
Answer: The value was 15.

Question: What about the “Falls (Question 13): patients with change +1” value [5, 7] of the same molecule?
Answer: The value was 1.

Question: What about the “Falls (Question 13): patients with change +2” value [5, 7] of the same molecule?
Answer: Its value is 0.

Question: What about the “Falls (Question 13): patients with change +3” value [5, 7] of the same molecule?
Answer: The value was 0.

Question: What about the “Falls (Question 13): patients with change −1” value [5, 7] of the same molecule?
Answer: Its value is 7.

Question: And the “Falls (Question 13): patients with change −2” value [5, 7]?
Answer: Its value is 5.

Question: And the “Falls (Question 13): patients with change −3” value [5, 8]?
Answer: The value was 2.

Question: What about the “patients with no falls during the study” value ([5]; number of 30 patients) of the same molecule?
Answer: The value was 12.

Question: And the “patients with a reduction in falls” value [5, 9]?
Answer: The value was 47%.

Question: And the “improvement in falling vs placebo at week 10” value ([5]; score >0 at screening/baseline, Fisher's exact test p=0.057)?
Answer: Its value is “statistically significant improvement in falling”.

Question: What about the “patients who reported fewer falls (UPDRS Part II, Question 13)” value ([5]; screening and/or baseline score >0, follow-up to visit 3 or 4) of the same molecule?
Answer: The value was 14 of 15.

Question: And the “Pull Test (Item 30): patients with No Change” value [6, 7]?
Answer: The value was 19.

Question: And the “Pull Test (Item 30): patients with change +1” value [6, 7]?
Answer: Its value is 1.

Question: What about the “Pull Test (Item 30): patients with change +2” value [6, 7] of the same molecule?
Answer: Its value is 0.

Question: What about the “Pull Test (Item 30): patients with change +3” value [6, 7] of the same molecule?
Answer: The value was 0.

Question: And the “Pull Test (Item 30): patients with change −1” value [6, 7]?
Answer: The value was 5.

Question: And the “Pull Test (Item 30): patients with change −2” value [6, 7]?
Answer: Its value is 5.

Question: What about the “Pull Test (Item 30): patients with change −3” value [6, 8] of the same molecule?
Answer: Its value is 0.

Question: And the “patients with improvement in postural stability (pull test)” value ([6]; patients with screening and/or baseline score >0, p=0.054 vs placebo)?
Answer: The value was 9 of 24.
